Earlier results, collected in EP1432446B1, “METHODS FOR THE IDENTIFICATION OF POLYPEPTIDE ANTIGENS ASSOCIATED WITH DISORDERS INVOLVING ABERRANT CELL PROLIFERATION” (Genentech, Inc., priority 2001, dated 2003).

COc1cc2cc(c1Cl)N(C)C(=O)C[C@H](OC(=O)[C@H](C)N(C)C(C)=O)[C@]1(C)O[C@H]1[C@H](C)[C@@H]1C[C@@](O)(NC(=O)O1)[C@H](OC)/C=C/C=C(\C)C2 [maytansine, Maytansine]
adverse effects in clinical trials (clinical trials discontinued): serious adverse effects on the central nervous system and gastrointestinal system | associated toxicity (in vivo): peripheral neuropathy
